Experimental data from patent US20110021507A1, “INHIBITING ANTIPSYCHOTIC-INDUCED WEIGHT GAIN” (Theracos, Inc., priority 2009, published 2011).

Tests used:
[1] = test system: cortical receptors; details: cited from earlier work
[2] = test system: cardiac receptors; details: cited from earlier work
[3] = test system: muscarinic receptor; details: cited from earlier work
[4] = Olanzapine-induced weight gain in a rat model (Alzet minipumps); type: in vivo, Wistar-Han female rats; details: OLZ 10 mg/kg/day; for effect on weight gain (main effect of Treatment, 2-way repeated measures ANOVA): OLZ vs VEH p=0.042, OLZ vs OLZ+TZP p=0.01, TZP 5 mg/kg/day
Protocol: Arrow indicates pump implantation and solid bar over the x-axis indicates the drug treatment interval. Telenzepine was administered at a dose of 5 mg/kg/day. […] The solid line indicates the effect of OLZ administered alone (OLZ-Induced weight gain), while dashed lines indicate groups receiving TZP, either alone (dashed line) or co-administered with the 10.0 mg/kg OLZ dose (dot-dash-dot line). The dotted line indicates the weight gain in animals receiving only Vehicle treatments. […] The rats were divided into the following four groups: Group 1—Control: Vehicle (NMP:DMSO:PEG) alone Group 2—OLZ (10 mg/kg/day) alone Group 3—TZP (5 mg/kg/day) alone Group 4—OLZ (10 mg/kg/day)+TZP (5 mg/kg/day) […] Two 2-way repeated measures ANOVAs were run: 1) Comparing No Treatment (VEH) to OLZ alone (addressing the question of whether or not OLZ induced weight gain), 2) Comparing OLZ alone to OLZ+TZP (addressing the question of whether or not TZP co-administration prevented OLZ-Induced weight gain).

[5] = patients being administered olanzapine; cited from earlier work
[6] = at 90 degrees; cited from earlier work

SMILES: Cc1scc2c1N(C(=O)CN1CCN(C)CC1)c1ccccc1NC2=O [(+) form of telenzepine]
- factor by which the (+) form is more effective than the (−) isomer [1]: 400
- factor by which the (+) form is more potent than the (−) form [2]: 50
- antimuscarinic activity [3]: potent antimuscarinic activity

SMILES: Cc1scc2c1N(C(=O)CN1CCN(C)CC1)c1ccccc1NC2=O [(−) form]
- antimuscarinic activity [3]: considerably less active

SMILES: Cc1cc2c(s1)Nc1ccccc1N=C2N1CCN(C)CC1 [Olanzapine, 2-methyl-4-(4-methyl-1-piperazinyl)-10H-thieno[2,3-b][1,5]benzodiazepine]
- effect on weight gain (main effect of Treatment, 2-way repeated measures ANOVA) [4]: induced a significant amount of weight gain over No Treatment controls
- difference in weight gain versus Vehicle treated rats ([4]; Treatment Day 12 (peak OLZ-induced gain), TZP 5 mg/kg/day by minipump): 6.2%
- patients experiencing bodyweight gain of greater than 7% [5]: ≤ 30%

SMILES: Cc1scc2c1N(C(=O)CN1CCN(C)CC1)c1ccccc1NC2=O [Telenzepine, 4,9-Dihydro-3-methyl-4-[(4-methyl-1-piperazinyl)acetyl]-10H-thieno[3,4-b][1,5]benzodiazepin-10-one]
- effect on weight gain (main effect of Treatment, 2-way repeated measures ANOVA) [4]: significant reduction in OLZ-induced weight gain
- half time of interconversion of the two forms [6]: approximately 200 hours
